Measurements reported in patent US8071641B2 (Yissum Research Development Company of the Hebrew …, priority 2004, dated 2011).
Where “and” joins values, the source holds several entries; their conditions need not be identical. Equal values may be shown once.

Experiments:
NOD mice = assay: Spontaneous diabetes in NOD mice (glucosuria, IPGTT); format: in vivo
Excerpt: Animals: Non-obese diabetic (NOD) mice develop spontaneous autoimmune diabetes and are commonly used as an experimental model for human insulin-dependent diabetes mellitus [Miazaki A., Clin. Exp. Immunol. 60:622 (1998); Harada, M., Exp. Clin. Endocrinol. 89: 251 (1987)].
Six to twelve week old NOD/Ltj female mice were fed standard laboratory animal chow ad libitum and were kept in Specific Pathogen Free (SPF) animal house facility.
(§1) Mice injected with vehicle alone as well as untreated mice served as controls.
Glucosuria analysis: The severity of diabetes was determined according to glucosuria, which was measured using Combi 9 Teststrips (Medi-Test, Macherey-Nagel, Duren, Germany).
Intraperitoneal glucose tolerance tests (IPGTT): Blood samples were obtained from the paraorbital plexus at 0 and 60 minutes after administration of an i.p. glucose injection at a dose of 1 g/kg body weight. Plasma glucose levels were determined using Glucose Analyzer 2 (Beckman Instruments). A glucose level above 15 mmol/liter at the 60 min time point was considered as a positive IPGTT.

[1] = system: mouse peritoneal macrophages; conditions: macrophages activated by LPS and IFNγ; cited from earlier work
mice [2] = conditions: orally at doses of up to 10 mg/kg; cited from earlier work
human leukocytes = conditions: cited from earlier work
INFγ = assay: Plasma INFγ level in NOD mice by ELISA; format: in vivo; conditions: 5 mg/kg i.p., mean of 5 mice
Experimental: as §1
Plasma INFγ: INFγ is associated with the progression of diabetes in NOD mice (Schloot, N. C., Diabetes Metab. Res. Rev. 18:64, 2002; Weiss et al., Cytokine 19:85, 2002; Braz, J., Med. Biol. Res. 35: 1347, 2000).
Plasma INFγ levels in mice were determined by ELISA kit (B.D Bioscience San Diego U.S.A).

islets of Langerhans = assay: Histopathology of pancreatic islets (insulitis) in NOD mice; format: in vivo
Excerpt: as §1
Histopathology: Twenty weeks after onset of treatment mice were sacrificed. Pancreatic tissue samples were fixed in 4% buffered formation, embedded in paraffin, sectioned (5 μm thickness) and stained with hematoxylin and eosin. The stained pancreatic sections were observed under a microscope for infiltration of mononuclear lymphocytes into the islets of Langerhans (insulitis). The sections were scored by two uninformed observers as follows: 0, no cell infiltration; 1, cell infiltration in <20% of islet area; 2, cell infiltration in <50% of islet area; cell infiltration in <75% of islet area; and 4, cell infiltration in 90-100% of islet area.

peripheral receptors CB2 = peripheral receptors CB2 (Homo sapiens, UniProt P34972); conditions: cited from earlier work
Chain of peripheral receptors CB2 (P34972 whole entry): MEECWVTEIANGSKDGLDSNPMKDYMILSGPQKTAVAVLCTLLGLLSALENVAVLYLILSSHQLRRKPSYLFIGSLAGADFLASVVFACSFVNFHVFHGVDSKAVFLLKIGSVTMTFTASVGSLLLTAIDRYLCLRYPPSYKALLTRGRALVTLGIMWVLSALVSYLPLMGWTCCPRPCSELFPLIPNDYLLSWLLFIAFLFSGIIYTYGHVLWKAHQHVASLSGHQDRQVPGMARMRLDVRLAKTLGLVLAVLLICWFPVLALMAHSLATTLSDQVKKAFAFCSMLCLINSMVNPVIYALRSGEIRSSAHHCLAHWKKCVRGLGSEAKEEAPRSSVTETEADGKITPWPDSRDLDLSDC

mice [3] = conditions: topical administration; cited from earlier work
male NOD mice = assay: Diabetes induced in male NOD mice by transfer of spleen cells from diabetic female mice; format: in vivo
Experimental: Experimental design—Male NOD mice were irradiated (650 cGy), 24 hrs prior to intravenous injection of spleen cells (25-28×10^6) derived from female diabetic mice.
Intraperitoneal glucose tolerance tests (IPGTT)—see Example 1 above. Blood glucose levels above 140 mg/dl were considered diabetic by testing blood glucose at t-0, 60 min following IP injection of 1 gr/Kg body weight of glucose [Glucometer Elite apparatus (Bayer Diagnostics, ELKART, IN)]. Alternatively, urine samples were taken twice a week from diabetic mice for testing glucose levels. Urine glucose levels above 1000 mg/dl as determined by combi 9 Teststrips (Medi-Test, Macherey-Nagel, Duren, Germany) were considered diabetic;

[4] = high concentrations (5-24 pg/ml)
[5] = 20 weeks after onset of treatment, of 54 scored fields
[6] = 5 mg/kg CBD, 20 IP injections, 5 times/week, of 15 mice

C=C(C)[C@@H]1CCC(C)=C[C@H]1c1c(O)cc(CCCCC)cc1O [CBD, Cannabidiol]
onset of symptoms in the CBD-treated diabetic mice (NOD mice; compared to untreated and vehicle-treated controls): substantially delayed
rate of protection (NOD mice; compared with controls): greater than 65%
Diabetes appearance (weeks), mean and range of weeks of first positive diagnosis (NOD mice; female NOD mice, 5 mg/kg i.p.): 18.4 (15-22) weeks
Diabetes incidence (%) (NOD mice; female NOD mice, 5 mg/kg i.p., 5 injections per week, 10-23 injections): 21.7%
No. of diabetic mice (NOD mice; female NOD mice, 5 mg/kg i.p., 5 injections per week, 10-23 injections, of 23 mice): 5
nitric oxide (NO) produced [1]: inhibited
PBQ-induced writhing (mice [2]): inhibited
IFNγ synthesis (human leukocytes; [4]): completely blocked
IL-1 production (human leukocytes; [4]): decreased
IL-2 secretion (human leukocytes; [4]): did not affect
TNFα production (human leukocytes; [4]): decreased
IFNγ production (human leukocytes; low concentrations): increased
INFγ (pg/ml) ± SD (INFγ): 43 pg/ml and 43 ± 21*^2 pg/ml
islets showing destruction (islets of Langerhans; 1/54): 1.9%
islets showing total infiltration (islets of Langerhans; 6/54): 11%
protected islets (intact or only partially infiltrated) (islets of Langerhans; 20 week period, 47/54): 87%
No. of fully destroyed islets (islets of Langerhans; [5]): 1
No. of intact islets (islets of Langerhans; [5]): 26
No. of partially infiltrated islets (islets of Langerhans; [5]): 21
No. of totally infiltrated islets (islets of Langerhans; [5]): 6
only partially infiltrated pancreatic islets (islets of Langerhans; 21/54): 39%
intact pancreatic islets (islets of Langerhans; 26/54): 48%
binding to peripheral receptors CB2 (peripheral receptors CB2): does not bind
TPA-induced erythema (mice [3]): reduce
Total % of diabetic mice (male NOD mice; 5 mg/kg CBD, 20 IP injections, 5 times/week): 53%
No. of diabetic mice (urine glucose above 1000 mg/dl) (male NOD mice; [6]): 6
No. of mice w/ latent diabetes (blood glucose above 140 mg/dl 60 minutes following IP glucose injection) (male NOD mice; [6]): 2
suppression of the appearance of diabetes (male NOD mice; male NOD mice injected with splenocytes from diabetic female NOD mice): about half
